Test results from patent publication US9115145B2, “Tocotrienol derivatives and associated methods” (FIRST TECH INTERNATIONAL LIMITED, priority 2011, dated 2015).
Like-named read-outs stand apart in the source and are kept apart here.

How the values were obtained:
[1] = tested on: MCF7 human breast cancer cell line; test: MTT assay of MCF7 cells; format: cell-based; settings: media containing 1% fetal bovine serum
Method: MDA-MB-231 and MCF7 cells were plated at a density of 8×10^3 cells/well and 10^4 cells/well in 96-well culture plates, respectively. The compounds were fed in serum free media containing 5% and 1% fetal bovine serum for MDA-MB-231 and MCF7 cells, respectively.

[2] = tested on: MCF 10A non-tumorigenic mammary epithelial cells; test: MTT assay of MCF10A cells; format: cell-based, human
Summary of the method: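 MCF 10A non-tumorigenic human mammary epithelial cells were seeded at 10×10^4 cells/well and treated with compounds in serum-free medium, final DMSO below 0.1%. Viability was read by MTT, and IC50 came from non-linear regression. Selectivity index = MCF 10A IC50 ÷ +SA cell line IC50.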

[3] = tested on: MDA-MB-231 human breast cancer cells; test: Wound-healing assay (cell migration); format: cell-based; settings: MDA-MB-231, wound-healing assay, dose response; read-out: IC50 antimigratory activity
Summary of the method: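 Scratch wounds made in confluent (>95%) monolayers, then compounds added in fresh medium (5 μM in screening; concentration range in follow-up), DMSO as negative control, triplicate. After 24 h serum-starved at 37 °C, cells fixed and Diff-Quick stained. Migrated cells counted per 400× field (≥3 fields); IC50 from concentration range.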

**Q.** `CC(C)=CCC/C(C)=C/CC/C(C)=C/CC[C@]1(C)CCc2cc(O)c(C)c(C)c2O1` [Compound 1, γ-tocotrienol, reference compound] was tested. Which IC50 [1] did it give?
**A.** 7.1 µM

**Q.** And the IC50 ([2]; MCF10A cells, Table II, non-linear regression, read-out: MCF10A (IC50))?
**A.** 4.4 µM

**Q.** And the IC50 ([2]; MCF 10A non-tumorigenic cells, Table I, read-out: IC50 MCF 10A)?
**A.** 4.4 µM

**Q.** What about the IC50 [3] of the same molecule?
**A.** > 40 µM
